Two compounds from patent EP0717746B1, “PHOSPHINIC ACID DERIVATIVES WITH ANTI-HYPER GLYCEMIC AND/OR ANTI-OBESITY ACTIVITY” (SMITHKLINE BEECHAM PLC, priority 1993, dated 1995) can be followed below.

Structures are written as SMILES.

This assay has as its target T1, human β3-adrenoceptor (Homo sapiens, UniProt P13945).
T1 construct: expressed in transfected cells; host or cells: CHO cells (stably transfected subclones); plasma membranes prepared
In words: β3-Adrenoceptor-mediated adenylyl cyclase activity in CHO cell plasma membranes. It counts as biochemical. The following applies: concentration of agonist producing 50 % activation of adenylyl cyclase; CHO cell plasma membranes transfected with the human β3-adrenoceptor; cAMP produced over 20 minutes. As to the method:
Subclones of CHO cells were stably transfected with each of the human β1, β2 and β3-adrenoceptors^1. Cells were then disrupted by immersion in ice-cold lysis buffer (10 mM TRIS, 2mM EDTA , pH 7.4) containing protease inhibitors leupeptin and benzamidine (5 µg / ml) and soyabean trypsin inhibitor (10 µg / ml). Membranes were prepared by the method of Bouvier et. al.^2 and stored in 1 ml aliquots in liquid N2 for future use.
Adenylyl cyclase activity was assayed by the method of Kirkham et. al.^3 by the addition of 40 µl (70 -80 µg protein) to the incubation medium of the above CHO cell plasma membranes transfected with the human β3-adrenoceptor . cAMP produced over 20 minutes was separated from ATP by the method of Salomon et al.^4. Agonist EC50 values and intrinsic activities were expressed as the concentration of agonist producing 50 % activation of adenylyl cyclase and the maximum response produced by each agonist relative to that produced by (-) isoprenaline respectively.

T1 sequence (P13945 whole entry): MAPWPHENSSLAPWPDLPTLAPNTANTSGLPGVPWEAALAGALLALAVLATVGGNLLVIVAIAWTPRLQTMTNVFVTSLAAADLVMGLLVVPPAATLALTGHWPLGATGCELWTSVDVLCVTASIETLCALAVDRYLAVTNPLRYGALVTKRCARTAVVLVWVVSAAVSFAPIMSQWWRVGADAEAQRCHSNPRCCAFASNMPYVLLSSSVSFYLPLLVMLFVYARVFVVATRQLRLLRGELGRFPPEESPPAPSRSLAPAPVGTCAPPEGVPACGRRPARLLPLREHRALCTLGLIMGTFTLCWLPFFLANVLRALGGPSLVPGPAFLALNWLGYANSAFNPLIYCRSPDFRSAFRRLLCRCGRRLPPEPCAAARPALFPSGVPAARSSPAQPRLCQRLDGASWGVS

Turning to `CCOP(=O)(CC)COc1ccc(CC(C)NC[C@H](O)c2ccc(O)c(O)c2)cc1` (some centres unmarked) [Example 2, (RR RS) Ethyl 4-[2-[2-(3,4-dihydroxyphenyl)-2-hydroxyethylamino]propyl]phenoxymethylethylphosphinate], the EC50 came to 460 nM.

Compound `CC(Cc1ccc(OCP(=O)(O)c2ccccc2)cc1)NC[C@H](O)c1ccc(O)c(O)c1` (some centres unmarked) [Example 3, (RR RS) 4-[2-[2-(3,4-Dihydroxyphenyl)-2-hydroxyethylamino]propyl]phenoxymethyl phenylphosphinic acid.] showed an EC50 of 540 nM.
